From article PMC12251151, “Understanding Anti-Obesity Potential of Four Porphyrin Compounds by Investigating Pancreatic Lipase Inhibition” (Molecules, 2025)

Experiments:
pancreatic lipase (PL) [1] = target: T1, pancreatic lipase (PL) (Sus scrofa, UniProt P00591); assay: Mode of pancreatic lipase inhibition (reversibility, Lineweaver-Burk kinetics); assay type: biochemical, porcine; conditions: for Reversibility of PL inhibition: enzyme concentration vs reaction rate plots; for Ki: uncompetitive model, intercept replot
T1 construct: lipase (porcine pancreas); purchased Shanghai Yuanye Co., Ltd., Shanghai, China; host or cells: porcine pancreas
T1 sequence (P00591 1-450): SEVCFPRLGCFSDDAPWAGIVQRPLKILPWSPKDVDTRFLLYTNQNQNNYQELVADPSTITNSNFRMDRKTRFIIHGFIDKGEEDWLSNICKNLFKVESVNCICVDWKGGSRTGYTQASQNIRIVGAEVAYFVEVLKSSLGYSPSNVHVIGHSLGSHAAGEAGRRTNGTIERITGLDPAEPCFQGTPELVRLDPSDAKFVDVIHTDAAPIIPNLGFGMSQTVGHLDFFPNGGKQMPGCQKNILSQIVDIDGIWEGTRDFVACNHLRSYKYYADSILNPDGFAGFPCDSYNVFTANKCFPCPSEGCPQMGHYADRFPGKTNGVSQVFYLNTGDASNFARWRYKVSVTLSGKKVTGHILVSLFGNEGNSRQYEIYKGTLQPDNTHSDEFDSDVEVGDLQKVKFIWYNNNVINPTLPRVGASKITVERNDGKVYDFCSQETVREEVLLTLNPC
Description: In the formula, v , Vmax, Km, and Ki represent reaction rate, maximum reaction rate, Michaelis constant, and free enzyme inhibition constant, respectively. [S] denotes the substrate concentration. [I] denotes the inhibitor concentration.
By analyzing the relationship between enzyme concentration and reaction rate, a fitting straight line was drawn to determine whether it was reversible.
The concentration of PL was fixed at 5 mg/mL, and the concentration of the substrate 4-nitrophenyl laurate was changed (0.40, 0.80, 1.20, 1.60 mg/mL). By analyzing the relationship between the concentration of different substrates and the reaction rate of the enzyme, the Lineweaver–Burk double reciprocal curve was plotted to determine the inhibition type and calculate the inhibition constant.

pancreatic lipase (PL) [2] = target: T1, pancreatic lipase (PL); assay: In vitro stability (temperature and acid-base pre-treatment, then PL inhibition); assay type: physicochemical, porcine; conditions: 20 min treatment with buffers pH 2.0-10.0
Description: Temperature stability study. Sample pre-treatment: 1000 μL samples were bathed in water at different temperatures (30, 40, 50, 60, 70, 80, 90, 100 °C) for 20 min, and cooled rapidly.
Acid-base stability study. Sample pre-treatment: 1000 μL samples were treated with buffers of different pH (2.0, 3.0, 4.0, 5.0, 6.0, 7.0, 8.0, 9.0, and 10.0) for 20 min, and then the pH was adjusted back to 6.9–7.3.
PL inhibition experiments were the same as Section 3.2.1. A total of 200 μL pre-treated four porphyrin compounds, 500 μL of 4-nitrophenyl laurate (0.80 mg/mL), 400 μL of Tris-HCl buffer (pH 8.2, 0.1 mol/L), and 300 μL of pancreatic lipase (5 mg/mL) were reacted in an incubator at 37 °C for 2 h. The reaction solution was centrifuged at 12,000 rpm for 5 min, and 200 μL of the supernatant was added to a 96-well plate. The absorbance at 420 nm was measured. The temperature stability range was determined by comparing the inhibition rate of the samples treated at different temperatures. The range of acid-base stability was determined by comparing the changes in inhibition rate.

Question: `O=C([O-])c1ccc(C2=C3C=CC(=N3)C(c3ccc(C(=O)[O-])cc3)=C3C=CC(=N3)C(=c3ccc(=C([O-])[O-])cc3)c3ccc([n-]3)C(c3ccc(C(=O)[O-])cc3)=C3C=CC2=N3)cc1.[67Cu+2].[H+].[H+].[H+].[H+]` [Cu-TCPP, Cu (II) meso-Tetra (4-carboxyphenyl) porphine] was tested. Which “Reversibility of PL inhibition” value (pancreatic lipase (PL) [1]) did it give?
Answer: reversible

Question: And the Km (pancreatic lipase (PL) [1]; inhibitor C 29.33 μM)?
Answer: 192 ± 4.9 nM

Question: And the Vmax (pancreatic lipase (PL) [1]; inhibitor C 29.33 μM)?
Answer: 0.0052 ± 0.0013 ΔOD/min

Question: And the Km (pancreatic lipase (PL) [1]; inhibitor C 58.66 μM)?
Answer: 164 ± 3.7 nM

Question: What about the Vmax (pancreatic lipase (PL) [1]; inhibitor C 58.66 μM) of the same compound?
Answer: 0.0044 ± 0.0009 ΔOD/min

Question: What about the Km (pancreatic lipase (PL) [1]; inhibitor C 117.33 μM) of the same compound?
Answer: 133 ± 2.2 nM

Question: What about the Vmax (pancreatic lipase (PL) [1]; inhibitor C 117.33 μM) of the same compound?
Answer: 0.0036 ± 0.0006 ΔOD/min

Question: What about the Km (pancreatic lipase (PL) [1]; inhibitor C 175.99 μM) of the same compound?
Answer: 112 ± 4.6 nM

Question: What about the Vmax (pancreatic lipase (PL) [1]; inhibitor C 175.99 μM) of the same compound?
Answer: 0.0030 ± 0.0012 ΔOD/min

Question: What about the Km (pancreatic lipase (PL) [1]; inhibitor C 234.66 μM) of the same compound?
Answer: 98.8 ± 1.7 nM

Question: And the Vmax (pancreatic lipase (PL) [1]; inhibitor C 234.66 μM)?
Answer: 0.0026 ± 0.0005 ΔOD/min

Question: And the Ki (pancreatic lipase (PL) [1])?
Answer: 196.15 ± 0.131 µM

Question: And the “pH range in which PL inhibitory activity changed little (acid-base stability)” value (pancreatic lipase (PL) [2])?
Answer: 2.0~10.0 pH

Question: Which results are given for `Nc1ccc(-c2c3nc(c(-c4ccc(N)cc4)c4ccc([nH]4)c(-c4ccc(N)cc4)c4nc(c(-c5ccc(N)cc5)c5ccc2[nH]5)C=C4)C=C3)cc1` [TAPP, 5,10,15,20-Tetrakis (4-aminophenyl) porphyrin]?
Answer: Reversibility of PL inhibition (pancreatic lipase (PL) [1]): reversible; Vmax (pancreatic lipase (PL) [1]; inhibitor C 118.55 μM): 0.0023 ± 0.0003 ΔOD/min; Vmax (pancreatic lipase (PL) [1]; inhibitor C 177.83 μM): 0.0018 ± 0.0003 ΔOD/min; Vmax (pancreatic lipase (PL) [1]; inhibitor C 237.11 μM): 0.0016 ± 0.0006 ΔOD/min; Vmax (pancreatic lipase (PL) [1]; inhibitor C 266.75 μM): 0.0015 ± 0.0003 ΔOD/min; Vmax (pancreatic lipase (PL) [1]; inhibitor C 296.38 μM): 0.0014 ± 0.0005 ΔOD/min; Ki (pancreatic lipase (PL) [1]): 149.9 ± 0.195 µM; pH range in which PL inhibitory activity changed little (acid-base stability) (pancreatic lipase (PL) [2]): 2.0~9.0 pH

Question: Which results are given for `O=C(O)c1ccc(-c2c3nc(c(-c4ccc(C(=O)O)cc4)c4ccc([nH]4)c(-c4ccc(C(=O)O)cc4)c4nc(c(-c5ccc(C(=O)O)cc5)c5ccc2[nH]5)C=C4)C=C3)cc1` [TCPP, meso-Tetra (4-carboxyphenyl) porphine]?
Answer: Reversibility of PL inhibition (pancreatic lipase (PL) [1]): reversible; Vmax (pancreatic lipase (PL) [1]; inhibitor C 12.65 μM): 0.0042 ± 0.0011 ΔOD/min; Vmax (pancreatic lipase (PL) [1]; inhibitor C 31.61 μM): 0.0037 ± 0.0008 ΔOD/min; Vmax (pancreatic lipase (PL) [1]; inhibitor C 63.23 μM): 0.0027 ± 0.0012 ΔOD/min; Vmax (pancreatic lipase (PL) [1]; inhibitor C 126.45 μM): 0.0015 ± 0.0004 ΔOD/min; Vmax (pancreatic lipase (PL) [1]; inhibitor C 189.68 μM): 0.0012 ± 0.0003 ΔOD/min; Ki (pancreatic lipase (PL) [1]): 53.49 ± 0.141 µM; pH range in which PL inhibitory activity changed little (acid-base stability) (pancreatic lipase (PL) [2]): 2.0~10.0 pH

Question: Which “Reversibility of PL inhibition” value (pancreatic lipase (PL) [1]) does the source give for `Oc1ccc(-c2c3nc(c(-c4ccc(O)cc4)c4ccc([nH]4)c(-c4ccc(O)cc4)c4nc(c(-c5ccc(O)cc5)c5ccc2[nH]5)C=C4)C=C3)cc1` [THPP, 5,10,15,20-Tetrakis (4-hydroxyphenyl) porphyrin] here?
Answer: reversible

Question: And the Vmax (pancreatic lipase (PL) [1]; inhibitor C 36.84 μM)?
Answer: 0.0041 ± 0.0009 ΔOD/min

Question: What about the Vmax (pancreatic lipase (PL) [1]; inhibitor C 73.67 μM) of the same compound?
Answer: 0.0035 ± 0.0013 ΔOD/min

Question: And the Vmax (pancreatic lipase (PL) [1]; inhibitor C 147.34 μM)?
Answer: 0.0018 ± 0.0007 ΔOD/min

Question: And the Vmax (pancreatic lipase (PL) [1]; inhibitor C 221.01 μM)?
Answer: 0.0012 ± 0.0004 ΔOD/min

Question: And the Vmax (pancreatic lipase (PL) [1]; inhibitor C 294.68 μM)?
Answer: 0.0009 ± 0.0002 ΔOD/min

Question: What about the Ki (pancreatic lipase (PL) [1]) of the same compound?
Answer: 37.03 ± 0.186 µM

Question: What about the “pH range in which PL inhibitory activity changed little (acid-base stability)” value (pancreatic lipase (PL) [2]) of the same compound?
Answer: 2.0~10.0 pH
